In patent US9346762B2, “Pyrazole derivatives and their use as LPAR5 antagonists” (SANOFI, priority 2012, dated 2016):

What was measured:
Format in all cases: cell-based
[1] = system: human mast cell line HMC-1 (LPA receptor LPAR5); assay: FLIPR assay, intracellular Ca2+ release in human mast cell line HMC-1; details: HMC1, LPA-stimulated Ca2+ release, HMC-1 cells, compound added 10 minutes prior to LPA
Description: (§1) B) Use of the Fluorometric Imaging Plate Reader (FLIPR) Assay for the Determination of Intracellular Ca^2+ Release in Human Mast Cell Line HMC-1 and the Murine Microglia cell line BV-2
(§2) The ability of the compounds of the formula Ito inhibit or bind the LPA receptor LPAR5 can be assessed by determining the intracellular Ca^2+ release in human or animal cells. For the analysis of activating potential of LPA and the inhibitory effects of compounds of the formula I two cell lines were used with high LPAR5 expression, the human mast cell line HMC-1 and the murine microglia cell line BV-2 (FIGS. 1 and 2). For the FLIPR assay using human mast cells in a 96-well-format, HMC-1 suspension cells from flask culture were harvested, resuspended and counted. 14×10^6 HMC-1 cells were transferred into a new 50 ml tube, centrifuged for 3 minutes at 540×g. The resulting cell pellet at the bottom of the tube was resuspended with 15 ml loading buffer (loading buffer contained HBSS buffer (pH 7.4), 0.1% BSA (bovine serum albumin), 2 μM FLUO-4 dye; HBSS buffer (pH 7.4) contained 1×HBSS, 20 mM HEPES, 0.01% Pluronic F-127, 2.5 mM Probenicid).
Cells in loading buffer were incubated for 45-60 minutes at 37° C. After incubation cells were centrifuged for 3 minutes at 540×g and resuspended with 21 ml of HBSS buffer (pH 7.4). Each well of a poly-D-lysine coated 96-well-plate was filled with 150 μl cell solution, an equivalent of 100 000 cells/well. The 96-well-plate was centifuged for 2 minutes at 100×g (without brake) prior a recovery time of 30 minutes at 37° C. After this procedure cells were stimulated with LPA (in HBSS pH 7.4 and 0.1% BSA) to determine the EC50 of LPA in HMC-1 cells. For the determination of the inhibitory effect of compounds of the formula I, test compounds were added to the cells in the 96-well-plate 10 minutes prior the addition of LPA. Results of the assay are expressed as % activation, and are calculated using maximum peak of activation (Amax). The IC50 data of the above described FLIPR assay using human mast cell line HMC-1 for exemplary compounds of the present invention are shown in Table 2. Adherent BV-2 cells were seeded onto poly-D-lysine coated 96-well-plates (100000 cells/well) the day before performing the FLIPR assay. The density of the cells in the 96-well-plate at the day of the FLIPR assay should be 90%. After aspiration of the culture media, BV-2 cells were incubated for 30 minutes at 37° C. with loading buffer and recovered in 150 μl HBSS buffer for 30 minutes at 37° C. After this procedure cells were stimulated with LPA (in HBSS pH 7.4 and 0.1% BSA) to determine the EC50 of LPA in BV-2 cells. For the determination of the inhibitory effect of compounds of the formula I, test compounds were added to the cells in the 96-well-plate 10 minutes prior the addition of LPA. The IC50 data of the above described FLIPR assay using the murine microglia cell line BV-2 for exemplary compounds of the present invention are shown in Table 3.

[2] = system: washed human blood platelets (platelet LPA receptor LPAR5); assay: Aggregation assay for washed human blood platelets (LPA-induced); details: reduction of maximal LPA-induced aggregation, 5 min preincubation at 37° C.
Description: A) Aggregation Assay for Washed Human Blood Platelets (Thrombocytes)
Whole blood was collected from healthy volunteers using 3×20 ml syringes containing each 1/10 volume of buffered citrate. The anticoagulated whole blood was transferred into 50 ml polypropylene conical tubes (30 ml per tube). The tubes were centrifuged for 10 minutes at 150×g at room temperature without using the centrifuge brake. This procedure results in a lower phase of cellular components and a supernatant (upper phase) of platelet rich plasma (PRP). The PRP phase was collected from each tube and pooled for each donor. To avoid carry over of cellular components following first centrifugation, approximately 5 ml of PRP was left in the tube. The platelet concentration was determined using a ABX Micros 60 counter. The PRP phase was transferred to a new 50 ml tube. After 10 minutes standing at room temperature, 1 μl PGI2 (1 mM in Tris-HCl/pH 8.8) and 180 μl ACD/A were added per ml PRP. The PRP was then transferred to new 10 ml tube and centrifuged for 10 minutes at 500×g. After centrifugation a cellular pellet is visible at the bottom of the tube. The supernatant was carefully discarded and the cellular pellet, consisting of human blood platelets was then dissolved in 10 ml buffer T (buffer T composition: 145 mM NaCl, 5 mM KCl, 0.1 mM MgCl2×6 H2O, 15 mM HEPES, 5.5 mM glucose, pH 7.4). Platelet concentration in this solution was determined and buffer T was added to obtain a final concentration of 3.5×10^5 platelets per ml.
After 10 minutes at room temperature, 1 μl PGI2 per ml platelet solution was added and distributed into new 10 ml tubes. After a centrifugation step, 10 minutes at 500×g, supernatant was discarded and the platelets were resuspended in buffer T to a final concentration of 3.5×10^5 platelets per ml buffer T. Before use, platelet-containing buffer equilibrated for 30 minutes at room temperature. The human platelet aggregation assay was performed in single use cuvettes using the Platelet Aggregation Profiler® (PAP-4 or -8E, BIO/DATA Corporation). For a single experiment, 320 μl of platelet solution were transferred into an assay cuvette, 20 μl of calcium citrate solution (10 mM in H2O) and 20 μl of fibrinogen solution (20 mg/ml H2O) were added. The aggregation assay was performed in the assay cuvette at 37° C. and with 1.200 rpm stirring. To determine the EC50, eight assay cuvettes were loaded as described above with different concentrations of LPA. Aggregation was measured over 6 minutes at 37° C. with 1200 rpm (revolutions per minute) stirring. Results of the assay are expressed as % activation, and are calculated using maximum aggregation (Tmax) or area under curve (AUC) of the absorbance over 6 minutes. The inhibitory effect (IC50) of the test compounds was determined as the reduction of the maximal aggregation. Test compound was added prior starting the experiment with an incubation time of the test compound of 5 minutes at 37° C. with 1200 rpm stirring. The IC50 data of the above described platelet aggregation assay using human washed platelets for exemplary compounds of the present invention are shown in Table 1.

[3] = system: murine microglia cell line BV-2 (LPA receptor LPAR5); assay: FLIPR assay, intracellular Ca2+ release in murine microglia cell line BV-2; details: Mus musculus; LPA-stimulated Ca2+ release, BV-2 cells, compound added 10 minutes prior to LPA
Description: as §1, §2
Cells in loading buffer were incubated for 45-60 minutes at 37° C. […] Results of the assay are expressed as % activation, and are calculated using maximum peak of activation (Amax). […]

Cc1c(COC(C)(C)C(=O)O)nn(-c2ccc(Cl)cc2Cl)c1-c1ccc(Cl)cc1 [Example 1, 2-[5-(4-Chloro-phenyl)-1-(2,4-dichloro-phenyl)-4-methyl-1H-pyrazol-3-ylmethoxy]-2-methyl-propionic acid]
IC50 [1]: 8.3 µM

Cc1c(COC2(C(=O)O)CCCC2)nn(-c2ccc(Cl)cc2Cl)c1-c1ccc(Cl)cc1 [Example 3, 1-[5-(4-Chloro-phenyl)-1-(2,4-dichloro-phenyl)-4-methyl-1H-pyrazol-3-ylmethoxy]-cyclopentanecarboxylic acid]
IC50 [1]: 8.8 µM

Cc1c(COC(C)(C)C(=O)O)nn(-c2ccc(Cl)cc2Cl)c1-c1ccc(C(F)(F)F)cc1 [Example 4, 2-[1-(2,4-Dichloro-phenyl)-4-methyl-5-(4-trifluoromethyl-phenyl)-1H-pyrazol-3-ylmethoxy]-2-methyl-propionic acid]
IC50 [1]: 6.6 µM

CCC(OCc1nn(-c2ccc(Cl)cc2Cl)c(-c2ccc(Cl)cc2)c1C)C(=O)O (stereo not shown) [Example 7, 2-[5-(4-Chloro-phenyl)-1-(2,4-dichloro-phenyl)-4-methyl-1H-pyrazol-3-ylmethoxy]-butyric acid]
IC50 [1]: 11.4 µM | IC50 [2]: 4.7 µM

Cc1c(COC(C)C(=O)O)nn(-c2ccc(Cl)cc2Cl)c1-c1ccc(Cl)cc1 (stereo not shown) [Example 8, 2-[5-(4-Chloro-phenyl)-1-(2,4-dichloro-phenyl)-4-methyl-1H-pyrazol-3-ylmethoxy]-propionic acid]
IC50 [1]: 6.3 µM | IC50 [2]: 4.1 µM

Cc1c(COC(C)(C)C(=O)NCc2ccc(C(=O)O)cc2)nn(-c2ccc(Cl)cc2Cl)c1-c1ccc(Cl)cc1 [Example 9, 4-({2-[5-(4-Chloro-phenyl)-1-(2,4-dichloro-phenyl)-4-methyl-1H-pyrazol-3-ylmethoxy]-2-methyl-propionylamino}-methyl)-benzoic acid]
IC50 [3]: 1.8 µM | IC50 [1]: 1.3 µM | IC50 [2]: 2.9 µM

Cc1c(COC(C)(C)C(=O)NCc2ccc(C(=O)O)cc2)nn(-c2ccc(Cl)cc2Cl)c1-c1ccc(C(F)(F)F)cc1 [Example 10, 4-({2-[1-(2,4-Dichloro-phenyl)-4-methyl-5-(4-trifluoromethyl-phenyl)-1H-pyrazol-3-ylmethoxy]-2-methyl-propionylamino}-methyl)-benzoic acid]
IC50 [3]: 0.2 µM | IC50 [1]: 0.03 µM

Cc1c(COCC(=O)NCc2ccc(C(=O)O)cc2)nn(-c2ccc(Cl)cc2Cl)c1-c1ccc(Cl)cc1 [Example 11, 4-({2-[5-(4-Chloro-phenyl)-1-(2,4-dichloro-phenyl)-4-methyl-1H-pyrazol-3-ylmethoxy]-acetylamino}-methyl)-benzoic acid]
IC50 [1]: 8.6 µM

CCC(OCc1nn(-c2ccc(Cl)cc2Cl)c(-c2ccc(Cl)cc2)c1C)C(=O)NCc1ccc(C(=O)O)cc1 (stereo not shown) [Example 12, 4-({2-[5-(4-Chloro-phenyl)-1-(2,4-dichloro-phenyl)-4-methyl-1H-pyrazol-3-ylmethoxy]-butyrylamino}-methyl)-benzoic acid]
IC50 [1]: 6.3 µM | IC50 [2]: 4.3 µM

Cc1c(COC(C)(C)C(=O)NCc2ccc(C(=O)O)cc2)nn(-c2ccccc2Cl)c1-c1ccc(C(F)(F)F)cc1 [Example 13, 4-({2-[1-(2-Chloro-phenyl)-4-methyl-5-(4-trifluoromethyl-phenyl)-1H-pyrazol-3-ylmethoxy]-2-methyl-propionylamino}-methyl)-benzoic acid]
IC50 [1]: 1.3 µM

Cc1c(COC(C)(C)C(=O)NCc2ccc(C(=O)O)cc2)nn(-c2ccc(Cl)cc2)c1-c1ccc(C(F)(F)F)cc1 [Example 14, 4-({2-[1-(4-Chloro-phenyl)-4-methyl-5-(4-trifluoromethyl-phenyl)-1H-pyrazol-3-ylmethoxy]-2-methyl-propionylamino}-methyl)-benzoic acid]
IC50 [1]: 3.4 µM

Cc1c(COC(C)C(=O)NCc2ccc(C(=O)O)cc2)nn(-c2ccc(Cl)cc2Cl)c1-c1ccc(Cl)cc1 (stereo not shown) [Example 15, 4-({2-[5-(4-Chloro-phenyl)-1-(2,4-dichloro-phenyl)-4-methyl-1H-pyrazol-3-ylmethoxy]-propionylamino}-methyl)-benzoic acid]
IC50 [1]: 8.8 µM | IC50 [2]: 6.5 µM

Cc1c(COC(C)C(=O)Nc2ccc(C(=O)O)cc2)nn(-c2ccc(Cl)cc2Cl)c1-c1ccc(C(F)(F)F)cc1 (stereo not shown) [Example 16, 4-{2-[1-(2,4-Dichloro-phenyl)-4-methyl-5-(4-trifluoromethyl-phenyl)-1H-pyrazol-3-ylmethoxy]-propionylamino}-benzoic acid]
IC50 [1]: 4.1 µM

Cc1c(COC(C(=O)Nc2ccc(C(=O)O)cc2)C(C)C)nn(-c2ccc(Cl)cc2Cl)c1-c1ccc(Cl)cc1 (stereo not shown) [Example 17, 4-{2-[5-(4-Chloro-phenyl)-1-(2,4-dichloro-phenyl)-4-methyl-1H-pyrazol-3-ylmethoxy]-3-methyl-butyrylamino}-benzoic acid]
IC50 [1]: 4.2 µM | IC50 [2]: 15.9 µM

Cc1c(COC(C)C(=O)Nc2ccc(C(=O)O)cc2)nn(-c2ccc(Cl)cc2)c1-c1ccc(C(F)(F)F)cc1 (stereo not shown) [Example 18, 4-{2-[1-(4-Chloro-phenyl)-4-methyl-5-(4-trifluoromethyl-phenyl)-1H-pyrazol-3-ylmethoxy]-propionylamino}-benzoic acid]
IC50 [1]: 3.8 µM

Cc1c(COC(C)C(=O)Nc2ccc(C(=O)O)cc2)nn(-c2ccccc2Cl)c1-c1ccc(C(F)(F)F)cc1 (stereo not shown) [Example 20, 4-{2-[1-(2-Chloro-phenyl)-4-methyl-5-(4-trifluoromethyl-phenyl)-1H-pyrazol-3-ylmethoxy]-propionylamino}-benzoic acid]
IC50 [1]: 5.2 µM

CC(OCc1cn(-c2ccccc2)nc1-c1ccccc1)C(=O)Nc1ccc(C(=O)O)cc1 (stereo not shown) [Example 22, 4-[2-(1,3-Diphenyl-1H-pyrazol-4-ylmethoxy)-propionylamino]-benzoic acid]
IC50 [1]: 16 µM
